The test system of the data set is 3Y1 cells. Put plainly: Rate of DNA synthesis by incorporation of bromodeoxyuridine. It is filed as cell-based, rat. To be noted: synchronized in low serum, released by serum stimulation. The method, then:
3Y1 cells plated in 96-wells at 1600 cells per well were transfected in triplicate samples with GeneBloc molecules. After ca. 30 h the cells were starved in DMEM containing 10 mM HEPES (pH 7.2) under continuous GeneBloc treatment. The cells were released into the cell cycle at various time points by addition of 10% serum. Control cells were incubated with 5 μg/ml aphidicolin for 18 h. After pulse-labeling with 10 μM 5-bromo-2′-deoxyururidine (BrdU) for the last 2 h the cells were fixed and permeabilized. The relative amount of BrdU incorporated into each sample was determined by using the Cell Proliferation ELISA, BrdU (colorimetric) (Roche) according to the manufacturer's instructions. Incorporated BrdU was detected by measuring the absorbance at 405 nm and 490 nM using the Spectra Max 190 (Molecular Devices).
3Y1 cells were used, because these untransformed rat fibroblasts are very sensitive to transfection conditons and are prone to arrest or even undergo apoptosis. Subconfluent 3Y1 cells in 96 wells were treated with PTEN GeneBloc 48, GeneBloc 53 or GBC as a control. On day 2 the cells were synchronized in low serum. During days 3 and 4 the cells were released into the cell cycle by serum stimulation at various time points. BrdU was added for the last 2 h of incubation. Untreated cells and cells that were treated with Aphidicolin for 24 h were used as controls. RNA knock down was analyzed in parallel samples. The rate of synthesis was determined via the amount of incorporated BrdU.

For “ucuccuuTTGTTTCTGcuaacga (UCUCCUUTTGTTTCTGCUAACGA; chemistry not fully specified) [PTEN 53, third generation antisense oligonucleotide (GeneBloc) against PTEN]”, the “rate of DNA synthesis (incorporated BrdU)” value is “strong increase in DNA synthesis after 18 h”.

For the origin of these results see US20030135033A1, “Compounds and methods for the identification and/ or validation of a target” (priority 2002, published 2003).
